# Data reported in patent US9226505B2, “4-substituted 1-phenylpyrazole-3-carboxylic acid derivatives as agents against abiotic plant stress” (BAYER INTELLECTUAL PROPERTY GMBH, priority 2011, dated 2016).
# Tested on: BRSNS
# Test: Drought stress test on crop plants, spray application, visual damage rating (BRSNS)
# Assay type: in vivo, Brassica napus
# Details: dosage 250 g/ha, mean of three results
# Method: Seeds of monocotyledonous and dicotyledonous crop plants were laid out in sandy loam in wood-fiber pots, covered with soil and cultivated in a greenhouse under good growth conditions. The test plants were treated at the early leaf stage (BBCH10-BBCH13). To ensure uniform water supply before commencement of stress, the potted plants were supplied with the maximum amount of water immediately beforehand by dam irrigation and, after application, transferred into plastic inserts in order to prevent subsequent, excessively rapid drying. The compounds according to the invention, formulated in the form of wettable powders (WP), wettable granules (WG), suspension concentrates (SC) or emulsion concentrates (EC), were sprayed onto the green parts of the plants as an aqueous suspension at an equivalent water application rate of 600 I/ha with addition of 0.2% wetting agent (agrotin). Substance application is followed immediately by stress treatment of the plants (cold or drought stress). […]
# After the recovery phase had ended, the intensities of damage were rated visually in comparison to untreated, unstressed controls of the same age (in the case of drought stress) or the same growth stage (in the case of cold stress). The intensity of damage was first recorded as a percentage (100%=plants have died, 0%=like control plants). […]
smiles,measurement,value
"CCCn1cc(-c2cn(-c3ccc(F)cc3)nc2C(=O)OCC)cn1 [1-878, Ethyl 1-(4-fluorophenyl)-1-propyl-1H, 1′H-4,4′-bipyrazole-3-carboxylate]","EF (BRSNS), efficacy = percentage reduction in the intensity of damage",>5%
